Earlier results in US20180228856A1, “Antibacterial combination of Basil oil and Taiwan red cypress oil for preventing drug-resistant S. aureus infections and the use thereof” (priority 2017, published 2018).
≈ marks a conversion by molar mass, not a printed value.

Test system: VISA strain Z172
Conditions: strain characteristic of Z172

Row | Compound | minimum inhibitory concentration (MIC) [µg/mL]
1 | CN[C@H](CC(C)C)C(=O)N[C@H]1C(=O)N[C@@H](CC(N)=O)C(=O)N[C@H]2C(=O)N[C@H]3C(=O)N[C@H](C(=O)N[C@H](C(=O)O)c4cc(O)cc(O)c4-c4cc3ccc4O)[C@H](O)c3ccc(c(Cl)c3)Oc3cc2cc(c3O[C@@H]2O[C@H](CO)[C@@H](O)[C@H](O)[C@H]2O[C@H]2C[C@](C)(N)[C@H](O)[C@H](C)O2)Oc2ccc(cc2Cl)[C@H]1O [vancomycin] | 4 (≈ 2.76 µM)
2 | CCCCCCCCCC(=O)N[C@@H](Cc1c[nH]c2ccccc12)C(=O)N[C@H](CC(N)=O)C(=O)N[C@@H](CC(=O)O)C(=O)N[C@@H]1C(=O)NCC(=O)N[C@@H](CCCN)C(=O)N[C@@H](CC(=O)O)C(=O)N[C@H](C)C(=O)N[C@@H](CC(=O)O)C(=O)NCC(=O)N[C@H](CO)C(=O)N[C@@H]([C@H](C)CC(=O)O)C(=O)N[C@@H](CC(=O)c2ccccc2N)C(=O)O[C@@H]1C [daptomycin] | > 4
